From US20110053900A1, “PROGESTERONE ANTAGONISTS SUCH AS CDB-4124 IN THE TREATMENT OF BREAST CANCER” (Repros Therapeutics inc, priority 2008, published 2011)
Marks after values point to notes of the source that are not given here.

Assays:
[1] = test system: rat tumors (proliferation marker Ki-67); test: Tumor proliferation by Ki-67 immunohistochemistry; type: in vivo; conditions: 10 mg/kg
Description: In order to assess the effects of progestins and anti-progestins on cell proliferation, tissue sections derived from 46 individual rat tumors from treated an control animals were examined by measuring expression of the proliferation marker Ki-67 using the Ki-67 antibody (NeoMarkers, Fremont, Calif.) and immunohistochemistry. Despite the reduction in size of many tumors in Groups 3 and 6 following treatment in Groups 3 and 6 making them too small to be re-cut, 7-12 ACAs from Groups 1, 3, 4, 6 and 11 were re-cut. The results of proliferation experiments, in which proliferation was measured as a percentage of cells expressing Ki-67, are summarized in Table 4: […]

Serum cortisol by ELISA = type: in vivo, rat; conditions: 10 mg/kg, 21 days of dosing
Method: (§1) The animals were assessed three times for their levels of progesterone: initially, when they were about to go on treatment; a second time after 21 days of treatment; and finally after treatment at sacrifice which was 2-4 days after the last s.c. injection. All blood samples were taken by heart puncture; serum was prepared and held frozen at −40° C. The levels of the steroid hormones progesterone, cortisol, and corticosterone were determined by ELISA.
(§2) The concentrations of steroid hormones were determined three times during the study: before the beginning of treatments, after 21 days of treatment and finally after treatment at sacrifice which was 2-4 days after the last s.c. injection. All samples were taken by heart puncture. Serum was obtained and held frozen at −40° C. The levels of steroid hormones were determined by ELISA.

[2] = Serum progesterone by ELISA; type: in vivo, rat; conditions: for Serum Progesterone, Before TX (mean): before treatment; for Serum Progesterone, During TX (mean): after 21 days of treatment; for Serum Progesterone, After TX (mean): at sacrifice 2-4 days after the last s.c. injection
Method: as §1, §2

rat tumors = test: Apoptosis in tumors; type: in vivo; conditions: 10 mg/kg
Method: Apoptosis was evaluated in the same tumors by an apoptosis hybridization kit (Oncor, Gaithersburg, Md.). The cells in apoptosis were evaluated in the peripheral areas of the tumors and far from necrosis. At least 1,000 cells per tumor section were evaluated.

[3] = test system: DMBA-induced tumors of the rat mammary gland; test: DMBA-induced breast tumors: tumor progression (growth pattern); type: in vivo; conditions: 10 mg/kg
Method: (§3) To induce breast tumors, Sprague-Dawley female rats were given 10 mg/kg body weight of DMBA at 50 days of age. One group of 14 rats (Group 2) received sesame oil at 50 days of age instead of DMBA to serve as the no-DMBA controls. Animals were weighed and palpated weekly along the milk line for any sign of lesions or swellings. Tumor nodules were noted and measured weekly in two dimensions with calipers. When tumors grew to a size of 10-12 mm in any dimension, the individual animal was randomized into one of 14 groups. Tumors appeared as soon as 39 days after oral gavage and as late as 194 days (latter individual not included in study). The mean latency period for tumor appearance was 106±30 days.
(§4) Animals were treated for 28 days on the following schedule. Group 1 received daily subcutaneous (s.c.) injections of vehicle (10% ethanol in sesame oil). Group 2 (no DMBA control group-no tumors expected) received vehicle on a schedule decided beforehand to simulate initiation of treatment over a three-month time period. […] Groups 5 through 9 received 20 mg/kg, 10 mg/kg, 2 mg/kg, 1 mg/kg and 0.1 mg/kg of CDB-4124, respectively. Groups 10 through 14 mirrored the treatment given 5 through 9 except that 10 mg/kg of micronized progesterone was also added as a component to compositions for injections.
In order to evaluate the effects of CDB-4124, RU486 and progesterone on tumor development and progression, growth kinetics and tumor size were monitored during the treatment period. Individual tumors from animals with tumors in the study were measured weekly in two dimensions with calipers. The data is corrected to exclude the non-malignant FA/AF tumor types. Tumors that increased in cross-sectional area by at least 33% over the 28-day inspection period were considered to be growing (FIG. 1, black boxes). Those that decreased by approximately 33% were considered to be regressing (FIG. 1, white boxes). Others were considered to be static (FIG. 1, gray boxes).

[4] = test system: DMBA-induced tumors of the rat mammary gland; test: DMBA-induced breast tumors: tumor number and tumor type at necropsy; type: in vivo; conditions: for ACA + PCA per rat / ACA per rat / FA/AF no. / Incidence of tumors (%) / Incidence of tumors (rats with tumors/rats) / PCA per rat: 28 days
Method: as §3, §4
(§5) Animals were sacrificed 3-5 days after the end of the 28-day treatment period, blood was drawn, and tumors were removed, weighed, measured, inspected, and portions frozen and/or placed in 10% phosphate buffered formalin for histopathology. The tissue samples were cut and stained with hematoxylin and eosin and were evaluated for histopathological classification.
Histologically, four types of tumors were identified (Table 2): adenocarcinomas (ACAs), papillary carcinomas (PCAs), a fibrosarcoma, and fibroadenomas or adenofibromas (FA or AF), the latter two tumor types were not considered to represent frank malignancies.

estrogen receptor (ER) = test: Expression of estrogen receptor in tumors (IHC); type: in vivo, rat; conditions: 10 mg/kg
Method: The tumors that were evaluated for proliferation and apoptosis were also assessed for expression of estrogen and progesterone receptors by immunohistochemistry (IHC). The percentage of cells positive for ER and PR was determined and analyzed. Tumors were grouped into four different categories: tumors with 0% of cells expressing ER, tumors with 10% of cells expressing ER, tumors with 15 to 30% of cells expressing ER and tumors with 30-50% of cells expressing ER. In general, untreated tumors consistently expressed ER. Out of 12 tumors analyzed, all 12 expressed ER. Four out of these 12 tumors contained 30-50% ER-positive cells.

[5] = test system: DMBA-induced tumors of the rat mammary gland; test: DMBA-induced breast tumors: tumor number, size and tumor burden at necropsy; type: in vivo; conditions: for Tumor Burden / Tumor Weight mean / Tumor Weight median / Number of Tumors: 28 days; for Number of Tumors: FA/AF excluded; for lowering of tumor burden and median tumor sizes: 10 mg/kg, versus control
Method: as §3, §4, §5
The results in Table 3 are those for ACA, PCA and mixed ACA/PCA, but the FA or AF tumors are excluded.

CC#C[C@]1(O)CC[C@H]2[C@@H]3CCC4=CC(=O)CCC4=C3[C@@H](c3ccc(N(C)C)cc3)C[C@@]21C [RU 486, mifepristone, reference compound]
Proliferating tumor cells by Ki-67, % cells positive [1]: 12.9 ± 7.0%
serum cortisol versus control group (in words) (Serum cortisol by ELISA): no significant difference in the levels of cortisol
Serum Progesterone, Before TX (mean) ([2]; 10 mg/kg group): 58 ng/mL
Serum Progesterone, During TX (mean) ([2]; 10 mg/kg): 72* ng/ml
Serum Progesterone, After TX (mean) ([2]; 10 mg/kg): 52 ng/mL
Apoptosis, % cells positive (rat tumors): 3.34 ± 2.57%
effect on tumor growth pattern (in words) ([3]; compared to the controls): apparent increase in the proportion of regressing tumors
ACA + PCA per rat ([4]; 10 mg/kg s.c. daily): 2.00
ACA per rat ([4]; 10 mg/kg s.c. daily): 2.08
FA/AF no. ([4]; 10 mg/kg s.c. daily): 1
Incidence of tumors (%) ([4]; 10 mg/kg s.c. daily): (93) %
Incidence of tumors (rats with tumors/rats) ([4]; 10 mg/kg s.c. daily): 13/14
PCA per rat ([4]; 10 mg/kg s.c. daily): 0.08
number of cells expressing ER in tumors (in words) (estrogen receptor (ER)): lowered the number of cells that express ERs
Tumor Burden ([5]; 10 mg/kg s.c. daily): 2.47 g/rat
Tumor Weight mean ([5]; 10 mg/kg s.c. daily): 1.19 g
Tumor Weight median ([5]; 10 mg/kg s.c. daily): 0.16 g
Number of Tumors ([5]; 10 mg/kg s.c. daily): 27
lowering of tumor burden and median tumor sizes [5]: 5 fold

COCC(=O)[C@@]1(OC(C)=O)CC[C@H]2[C@@H]3CCC4=CC(=O)CCC4=C3[C@@H](c3ccc(N(C)C)cc3)C[C@@]21C [CDB-4124, 21-methoxy-17α-acetoxy-11β-(4 N,N-dimethylaminophenyl)-19-norpregna-4,9-diene-3,20-dione]
Proliferating tumor cells by Ki-67, % cells positive [1]: 5.1 ± 4.2%
serum cortisol versus control group (in words) (Serum cortisol by ELISA): significantly higher levels of serum cortisol
Serum Progesterone, Before TX (mean) ([2]; 0.1 mg/kg group): 54 ng/mL
Serum Progesterone, During TX (mean) ([2]; 0.1 mg/kg): 53 ng/mL
Serum Progesterone, After TX (mean) ([2]; 0.1 mg/kg): 53 ng/mL
Serum Progesterone, Before TX (mean) ([2]; 1 mg/kg group): 64 ng/mL
Serum Progesterone, During TX (mean) ([2]; 1 mg/kg): 47 ng/mL
Serum Progesterone, After TX (mean) ([2]; 1 mg/kg): 42 ng/mL
Serum Progesterone, Before TX (mean) ([2]; 2 mg/kg group): 59 ng/mL
Serum Progesterone, During TX (mean) ([2]; 2 mg/kg): 74* ng/ml
Serum Progesterone, After TX (mean) ([2]; 2 mg/kg): 56 ng/mL
Serum Progesterone, Before TX (mean) ([2]; 10 mg/kg group): 52 ng/mL
Serum Progesterone, During TX (mean) ([2]; 10 mg/kg): 77* ng/ml
Serum Progesterone, After TX (mean) ([2]; 10 mg/kg): 43 ng/mL
Serum Progesterone, Before TX (mean) ([2]; 20 mg/kg group): 61 ng/mL
Serum Progesterone, During TX (mean) ([2]; 20 mg/kg): 96* ng/ml
Serum Progesterone, After TX (mean) ([2]; 20 mg/kg): 58 ng/mL
Apoptosis, % cells positive (rat tumors): 3.84 ± 3.10%
proportion of tumors regressing ([3]; decrease of cross-sectional area by about 33% over 28 days): 70%
ACA + PCA per rat ([4]; 0.1 mg/kg s.c. daily): 2.25
ACA per rat ([4]; 0.1 mg/kg s.c. daily): 1.17
FA/AF no. ([4]; 0.1 mg/kg s.c. daily): 3
Incidence of tumors (%) ([4]; 0.1 mg/kg s.c. daily): (100) %
Incidence of tumors (rats with tumors/rats) ([4]; 0.1 mg/kg s.c. daily): 12/12
PCA per rat ([4]; 0.1 mg/kg s.c. daily): 0.83
ACA + PCA per rat ([4]; 1 mg/kg s.c. daily): 1.78
ACA per rat ([4]; 1 mg/kg s.c. daily): 1.67
FA/AF no. ([4]; 1 mg/kg s.c. daily): 2
Incidence of tumors (%) ([4]; 1 mg/kg s.c. daily): (82) %
Incidence of tumors (rats with tumors/rats) ([4]; 1 mg/kg s.c. daily): 9/11
PCA per rat ([4]; 1 mg/kg s.c. daily): 0.11
ACA + PCA per rat ([4]; 2 mg/kg s.c. daily): 1.55
ACA per rat ([4]; 2 mg/kg s.c. daily): 1.45
FA/AF no. ([4]; 2 mg/kg s.c. daily): 2
Incidence of tumors (%) ([4]; 2 mg/kg s.c. daily): (92) %
Incidence of tumors (rats with tumors/rats) ([4]; 2 mg/kg s.c. daily): 11/12
PCA per rat ([4]; 2 mg/kg s.c. daily): 0.09
ACA + PCA per rat ([4]; 10 mg/kg s.c. daily): 1.70
ACA per rat ([4]; 10 mg/kg s.c. daily): 1.5
FA/AF no. ([4]; 10 mg/kg s.c. daily): 1
Incidence of tumors (%) ([4]; 10 mg/kg s.c. daily): (91) %
Incidence of tumors (rats with tumors/rats) ([4]; 10 mg/kg s.c. daily): 10/11
PCA per rat ([4]; 10 mg/kg s.c. daily): 0.2
ACA + PCA per rat ([4]; 20 mg/kg s.c. daily): 1.38
ACA per rat ([4]; 20 mg/kg s.c. daily): 1.31
FA/AF no. ([4]; 20 mg/kg s.c. daily): 3
Incidence of tumors (%) ([4]; 20 mg/kg s.c. daily): (100) %
Incidence of tumors (rats with tumors/rats) ([4]; 20 mg/kg s.c. daily): 13/13
PCA per rat ([4]; 20 mg/kg s.c. daily): 0.08
average multiplicity across the highest four treatment groups ([4]; 20, 10, 2, 1 mg/kg/day): 1.58 tumors per rat
Tumor Burden ([5]; 0.1 mg/kg s.c. daily): 5.1 g/rat
Tumor Weight mean ([5]; 0.1 mg/kg s.c. daily): 2.26 g
Tumor Weight median ([5]; 0.1 mg/kg s.c. daily): 0.17 g
Number of Tumors ([5]; 0.1 mg/kg s.c. daily): 29
Tumor Burden ([5]; 1 mg/kg s.c. daily): 0.94 g/rat
Tumor Weight mean ([5]; 1 mg/kg s.c. daily): 0.53 g
Tumor Weight median ([5]; 1 mg/kg s.c. daily): 0.17 g
Number of Tumors ([5]; 1 mg/kg s.c. daily): 16
Tumor Burden ([5]; 2 mg/kg s.c. daily): 4.61 g/rat
Tumor Weight mean ([5]; 2 mg/kg s.c. daily): 2.98 g
Tumor Weight median ([5]; 2 mg/kg s.c. daily): 0.09 g
Number of Tumors ([5]; 2 mg/kg s.c. daily): 17
Tumor Burden ([5]; 10 mg/kg s.c. daily): 0.48 g/rat
Tumor Weight mean ([5]; 10 mg/kg s.c. daily): 0.26 g
Tumor Weight median ([5]; 10 mg/kg s.c. daily): 0.075 g
Number of Tumors ([5]; 10 mg/kg s.c. daily): 18
lowering of tumor burden and median tumor sizes [5]: 10 fold
Tumor Burden ([5]; 20 mg/kg s.c. daily): 4.71 g/rat
Tumor Weight mean ([5]; 20 mg/kg s.c. daily): 3.4 g
Tumor Weight median ([5]; 20 mg/kg s.c. daily): 0.125 g
Number of Tumors ([5]; 20 mg/kg s.c. daily): 20
